{"source": "paper PMC12881674", "about": "“Activation of TRPV3 channels in bladder cancer cells stimulates ATP release” (Molecular Pharmacology, 2025)", "key": {"TRPV3 in KU-19-19 cells": {"biological_target": "T1, TRPV3 in KU-19-19 cells (Homo sapiens, UniProt Q8NET8)", "T1 construct": "host or cells: KU-19-19", "T1 sequence (Q8NET8 1-790)": "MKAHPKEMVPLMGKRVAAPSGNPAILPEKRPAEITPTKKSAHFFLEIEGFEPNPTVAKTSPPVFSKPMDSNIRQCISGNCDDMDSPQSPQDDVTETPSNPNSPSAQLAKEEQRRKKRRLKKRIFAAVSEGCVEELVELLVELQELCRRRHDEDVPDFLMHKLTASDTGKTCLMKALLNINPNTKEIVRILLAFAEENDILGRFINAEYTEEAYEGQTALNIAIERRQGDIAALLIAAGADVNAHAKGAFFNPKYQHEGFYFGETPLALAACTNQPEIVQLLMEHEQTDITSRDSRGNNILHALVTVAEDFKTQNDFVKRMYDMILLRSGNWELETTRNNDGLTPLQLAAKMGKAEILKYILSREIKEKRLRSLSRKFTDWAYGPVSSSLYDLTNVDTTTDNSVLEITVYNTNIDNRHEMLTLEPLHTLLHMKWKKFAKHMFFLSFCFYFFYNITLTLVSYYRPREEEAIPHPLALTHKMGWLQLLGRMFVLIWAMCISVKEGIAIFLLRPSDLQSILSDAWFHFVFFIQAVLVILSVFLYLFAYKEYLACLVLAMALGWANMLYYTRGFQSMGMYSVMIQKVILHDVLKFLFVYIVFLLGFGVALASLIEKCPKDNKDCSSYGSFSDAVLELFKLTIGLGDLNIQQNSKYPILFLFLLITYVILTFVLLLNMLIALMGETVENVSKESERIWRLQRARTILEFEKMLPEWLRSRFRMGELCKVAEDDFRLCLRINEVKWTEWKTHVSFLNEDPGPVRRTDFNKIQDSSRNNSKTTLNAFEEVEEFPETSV", "assay": "fura-2 Ca2+ assay in KU-19-19 bladder cancer cells", "type": "cell-based", "conditions": "50 μM AV3-1", "experimental": "(§1) All fluorometric Ca^2+ assays were performed in HBS buffer at room temperature. The compounds of the Enamine Diversity Set were diluted in a buffer composed of 150 mM NaCl and 20 mM HEPES and added to the cells at a final concentration of 25 μM (0.5% DMSO). For the primary compound screening and the generation of concentration-response analyses, a robotic liquid handling station (Freedom Evo 150; Tecan) with a built-in custom-made fluorescence plate imager was used. HEKTRPV3 and bladder cancer cell lines were harvested and loaded with 4 μM fluo-4/AM (Invitrogen; Fisher Scientific) in cell culture medium for 30 minutes at 37 °C. […] Fluorescence was excited using a 470-nm light-emitting diode, and emitted light was imaged through a 515-nm–long pass filter with a cooled Zyla 5.5 camera (Andor). Fluorescence was recorded and processed under the control of the μ-Manager 2.0 gamma software (https://micro-manager.org.[28]). After recording baseline fluorescence, compounds were dispensed into the wells via the liquid handling device. […] For further analysis, fluorescence signals were calculated for each well, corrected for background intensities and normalized to the initial signals. […] Fluorescence signals were excited with a fiber-coupled monochromator device (Polychrome V; Till Photonics) at 340, 358, and 380 nm and calibrated as described before.[29] […]"}, "TRPV3 in CAL-29 cells": {"biological_target": "T2, TRPV3 in CAL-29 cells (Homo sapiens, UniProt Q8NET8)", "T2 construct": "host or cells: CAL-29", "T2 sequence (Q8NET8 1-790)": "T1 sequence (Q8NET8 1-790)", "assay": "fura-2 Ca2+ assay in CAL-29 bladder cancer cells", "type": "cell-based", "conditions": "50 μM AV3-1", "experimental": "as §1"}}, "data": [{"smiles": "COC(=O)C12CN(Cc3ccccc3)CC1(C(=O)OC)CN(Cc1ccccc1)C2", "note": "(centres unmarked) [AV3-1]", "values": [{"measurement": "[Ca2+]i response in KU-19-19 cells", "setting": "TRPV3 in KU-19-19 cells", "value": "robust increases in [Ca^2+]i"}, {"measurement": "[Ca2+]i response in CAL-29 cells", "setting": "TRPV3 in CAL-29 cells", "value": "robust increases in [Ca^2+]i"}]}]}
